From patent publication US8569295B2, “Bicyclic urea compounds” (Merck Patent GmbH, priority 2009, dated 2013)

Assays:
GST-Aurora A = biological target: T1, GST-Aurora A (Homo sapiens, UniProt O14965); test: Aurora A kinase biochemical mobility shift assay (Caliper LC3000 / Desktop Profiler); details: AK A (Aurora kinase A) inhibition
T1 construct: N-terminal GST fusion with full length Aurora A (1-403 amino acids); purchased Carna Biosciences 05-101
T1 sequence (O14965 1-403): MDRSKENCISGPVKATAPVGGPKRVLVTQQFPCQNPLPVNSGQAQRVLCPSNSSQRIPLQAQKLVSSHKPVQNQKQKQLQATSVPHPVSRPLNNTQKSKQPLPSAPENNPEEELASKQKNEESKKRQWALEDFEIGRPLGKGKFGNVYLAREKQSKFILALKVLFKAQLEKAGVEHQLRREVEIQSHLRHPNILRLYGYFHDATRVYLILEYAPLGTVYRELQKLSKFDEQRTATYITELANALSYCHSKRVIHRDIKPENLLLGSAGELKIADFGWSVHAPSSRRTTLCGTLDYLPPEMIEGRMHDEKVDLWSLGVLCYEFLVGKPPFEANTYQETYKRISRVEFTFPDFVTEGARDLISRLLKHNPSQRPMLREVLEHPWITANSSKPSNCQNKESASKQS
Description: (§1) The Aurora assays described here are performed on two Caliper Life Sciences systems: the LC3000 and the Desktop Profiler. The RON kinase assays are performed on the Desktop Profiler only. These provide data on enzyme activity via measurement of the relative amounts of phosphorylated or unphosphorylated fluorescently labelled substrate peptide at the end of an enzymatic reaction. These different states of peptide are resolved by applying a potential difference across the sample. The presence of the charged phosphate group on the product (as opposed to the substrate) causes a different peptide mobility between the two peptides. This is visualized by excitation of the fluorescent label on the substrate and product peptides and represented as peaks within the analysis software.
In order to measure inhibitor activity of Aurora A inhibitors in the Caliper Life Sciences LC3000, a TTP Mosquito liquid handling instrument is used to place 0.25 ul of the appropriate concentration of inhibitor in 100% DMSO (for a dose response curve calculation) into each well of a 384-well plate. To this reaction components are added to a final volume of 25 ul: • 0.067 ng/ul GST-Aurora A (Carna Biosciences 05-101. N-terminal GST fusion with full length Aurora A (1-403 amino acids), accession number NP_940835.1). • 15 uM ATP (Fluka, 02055) • 1 mM DTT (Sigma, D0632) • 1 mM MgCl2 (Sigma, M1028) • 1 uM substrate peptide (sequence FITC-LRRASLG-(CONH2), synthesized by Tufts Peptide Synthesis service. • 100 mM HEPES pH 7.5 (Calbiochem, 391338) • 0.015% Brij-35 (Sigma, B4184)
The reaction is incubated for 90 min at 25 C, and then stopped by the addition of 70 ul of Stop buffer (100 mM HEPES pH 7.5, 0.015% Brij-35, 10 mM EDTA (Sigma, E7889)).
The plate is read on a Caliper LC3000 in an Off-Chip mobility shift assay format, using the following parameters for a 12-sipper chip: screening pressure −1.8 psi, upstream voltage −2700, downstream voltage −1000. These conditions cause unphosphorylated substrate and phosphorylated product peptide to resolve as separate peaks allowing direct measurement of percentage of conversion of substrate to product. The percent conversion can be plotted against concentration of inhibitor to produce a sigmoidal dose response curve, from which an IC50 can be calculated using XLFit for Microsoft Excel.
(§2) The Desktop Profiler utilizes the same priniciple as the LC3000 for calculating percentage conversion of a substrate to product. Caliper Life Sciences provides proprietary flash frozen pre-made 384 well plates containing selected kinases. Each column in the 384 well plate contains a particular selected kinase. A second plate, the ‘substrate plate’ contains a mix of fluorescently labeled peptide substrate and ATP. These are arranged in columns so that transfer for substrate plate to enzyme plate provides the correct enzyme with the correct substrate/ATP concentration. Compounds are added to a thawed enzyme plate in the desired format, in single concentrations. Reactions are initiated by transfer of the substrate/ATP mix from the substrate plate. The enzyme plate is incubated for 90 minutes at 25 C. The reaction is stopped by addition of 70 ul of Stop Buffer (100 mM HEPES pH 7.5, 0.015% Brij-35, 10 mM EDTA (Sigma, E7889)).
(§3) Reading of the plate in the Profiler is identical to the LC3000, and the ratio between substrate and product peaks provides the activity of the enzyme in that well. This is best represented by a plate heat map which colors each well by percent inhibition as compared to positive and negative controls (no inhibitors and no ATP respectively).

RON kinase = biological target: T2, RON kinase (Homo sapiens, UniProt Q04912); test: RON kinase biochemical mobility shift assay (Caliper Desktop Profiler); details: RON kinase inhibition
T2 construct: purchased Caliper Life Sciences
T2 sequence (Q04912 25-1400): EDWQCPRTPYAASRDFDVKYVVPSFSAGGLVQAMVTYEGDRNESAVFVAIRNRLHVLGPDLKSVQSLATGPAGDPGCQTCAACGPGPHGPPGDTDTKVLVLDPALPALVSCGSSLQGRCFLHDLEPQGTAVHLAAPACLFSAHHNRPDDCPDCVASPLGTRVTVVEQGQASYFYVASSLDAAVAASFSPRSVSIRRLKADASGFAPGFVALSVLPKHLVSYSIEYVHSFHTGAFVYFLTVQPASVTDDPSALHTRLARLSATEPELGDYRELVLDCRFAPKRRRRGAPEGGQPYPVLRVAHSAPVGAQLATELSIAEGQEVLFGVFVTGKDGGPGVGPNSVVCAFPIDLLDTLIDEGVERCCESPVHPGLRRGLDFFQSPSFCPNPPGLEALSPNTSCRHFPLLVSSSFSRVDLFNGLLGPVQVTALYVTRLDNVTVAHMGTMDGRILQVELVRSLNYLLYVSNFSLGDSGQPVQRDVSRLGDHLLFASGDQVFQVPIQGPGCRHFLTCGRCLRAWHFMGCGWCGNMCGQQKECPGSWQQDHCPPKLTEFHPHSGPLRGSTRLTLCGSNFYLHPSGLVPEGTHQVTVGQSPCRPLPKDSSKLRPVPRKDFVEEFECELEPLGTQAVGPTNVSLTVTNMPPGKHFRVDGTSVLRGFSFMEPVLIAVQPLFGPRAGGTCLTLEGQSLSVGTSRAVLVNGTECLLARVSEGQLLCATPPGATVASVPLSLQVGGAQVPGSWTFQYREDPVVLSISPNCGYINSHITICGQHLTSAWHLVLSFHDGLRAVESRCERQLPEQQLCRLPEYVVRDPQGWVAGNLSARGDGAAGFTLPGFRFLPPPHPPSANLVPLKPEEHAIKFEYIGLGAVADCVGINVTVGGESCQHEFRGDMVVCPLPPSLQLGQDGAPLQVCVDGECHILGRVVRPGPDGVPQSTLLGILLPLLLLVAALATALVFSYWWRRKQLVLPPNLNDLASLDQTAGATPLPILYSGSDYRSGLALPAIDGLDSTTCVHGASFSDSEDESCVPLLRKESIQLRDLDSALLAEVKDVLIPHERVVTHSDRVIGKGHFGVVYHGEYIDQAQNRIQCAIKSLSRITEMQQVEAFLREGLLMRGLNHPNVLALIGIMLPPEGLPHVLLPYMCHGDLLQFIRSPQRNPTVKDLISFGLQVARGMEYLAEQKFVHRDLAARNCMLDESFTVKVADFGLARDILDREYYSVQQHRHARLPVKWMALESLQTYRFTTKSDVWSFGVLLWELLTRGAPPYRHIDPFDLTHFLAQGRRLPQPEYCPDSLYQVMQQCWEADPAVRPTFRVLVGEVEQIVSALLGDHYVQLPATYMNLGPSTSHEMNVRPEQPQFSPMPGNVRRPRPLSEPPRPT
Description: as §1, §2, §3

normal human cell growth = details: in vitro, normal human cells vs tumor cells of various origins; cited from earlier work

Compound | IC50 (GST-Aurora A) | IC50 (RON kinase) | fold less effective at inhibiting normal human cell growth than tumor cell proliferation (normal human cell growth)
O=C1NCc2c(Oc3ccc(NC(=O)c4cccc(Br)c4)cc3F)ccnc2N1 [Example 66, 3-bromo-N-{3-fluoro-4-[(2-oxo-1,2,3,4-tetrahydropyrido[2,3-d]pyrimidin-5-yl)oxy]phenyl}-benzamide] | 10 to 100 nM | 10 to 100 nM | 
Nc1nc(Nc2ccc(S(N)(=O)=O)cc2)nn1C(=O)c1c(F)cccc1F [JNJ-7706621] |  |  | about 10 fold
O=C1NCc2c(Oc3ccc(NS(=O)(=O)c4ccccc4F)cc3F)ccnc2N1 [Example 70, 2-fluoro-N-{3-fluoro-4-[(2-oxo-1,2,3,4-tetrahydropyrido[2,3-d]pyrimidin-5-yl)oxy]phenyl}benzenesulfonamide] | 100 to 1000 nM | 100 to 1000 nM | 
O=C1NCc2c(Oc3ccc(NC(=O)c4cc(Cl)cnc4Cl)cc3F)ccnc2N1 [Example 65, 2,5-dichloro-N-{3-fluoro-4-[(2-oxo-1,2,3,4-tetrahydropyrido[2,3-d]pyrimidin-5-yl)oxy]phenyl}-nicotinamide] | 10 to 100 nM | 10 to 100 nM | 
COc1cccc(S(=O)(=O)Nc2ccc(Oc3ccnc4c3CNC(=O)N4)c(F)c2)c1 [Example 71, N-{3-fluoro-4-[(2-oxo-1,2,3,4-tetrahydropyrido[2,3-d]pyrimidin-5-yl)oxy]phenyl}-3-methoxybenzenesulfonamide] | 100 to 1000 nM | 100 to 1000 nM | 
O=C(Nc1cccc(Cl)c1)Nc1ccc(Oc2ccnc3c2CNC(=O)N3)c(F)c1 [Example 67, N-(3-chlorophenyl)-N′-{3-fluoro-4-[(2-oxo-1,2,3,4-tetrahydropyrido[2,3-d]pyrimidin-5-yl)oxy]phenyl}urea] | 10 to 100 nM | 10 to 100 nM | 
CCN1Cc2c(Oc3ccc(NC(=O)c4cccn(-c5ccc(F)cc5)c4=O)cc3F)ccnc2NC1=O [Example 84, N-{4-[(3-ethyl-2-oxo-1,2,3,4-tetrahydropyrido[2,3-d]pyrimidin-5-yl)oxy]-3-fluorophenyl}-1-(4-fluorophenyl)-2-oxo-1,2-dihydropyridine-3-carboxamide] |  | < 10 nM | 
N#Cc1cccc(C(=O)Nc2ccc(Oc3ccnc4c3CNC(=O)N4)c(F)c2)c1 [Example 95, 3-cyano-N-{3-fluoro-4-[(2-oxo-1,2,3,4-tetrahydropyrido[2,3-d]pyrimidin-5-yl)oxy]phenyl}benzamide] |  | 10 to 100 nM | 
O=C(Nc1ccc(Oc2ccnc3c2C2OCCCN2C(=O)N3)c(F)c1)c1cccn(-c2ccc(F)cc2)c1=O (centres unmarked) [Example 76, N-{3-fluoro-4-[(6-oxo-3,4,7,11b-tetrahydro-2H,6H-pyrido[2′,3′:4,5]pyrimido[6,1-b][1,3]oxazin-11-yl)oxy]phenyl}-1-(4-fluorophenyl)-2-oxo-1,2-dihydropyridine-3-carboxamide] |  | 10 to 100 nM | 

Further lines, with some results ahead:

IC50 (GST-Aurora A) | IC50 (RON kinase) | Compound | fold less effective at inhibiting normal human cell growth than tumor cell proliferation (normal human cell growth)
 | 100 to 1000 nM | Cc1ccc(Nc2ccnc3c2CNC(=O)N3)cc1Br [Example 194, 5-(3-Bromo-4-methyl-phenylamino)-3,4-dihydro-1H-pyrido[2,3-d]pyrimidin-2-one] | 
 | 10 to 100 nM | CCN1Cc2c(Oc3ccc(NC(=O)Nc4ccc5c(c4)OCO5)cc3F)ccnc2NC1=O [Example 263, 1-Benzo[1,3]dioxol-5-yl-3-[4-(3-ethyl-2-oxo-1,2,3,4-tetrahydro-pyrido[2,3-d]pyrimidin-5-yloxy)-3-fluoro-phenyl]-urea] | 
 | 10 to 100 nM | O=C1NCc2c(Oc3ccc(NC(=O)c4cccc(F)c4)cc3F)ccnc2N1 [Example 98, 3-fluoro-N-{3-fluoro-4-[(2-oxo-1,2,3,4-tetrahydropyrido[2,3-d]pyrimidin-5-yl)oxy]phenyl}benzamide] | 
 | 10 to 100 nM | O=C(Nc1cccc(F)c1)Nc1ccc(Oc2ccnc3c2CNC(=O)N3)c(F)c1 [Example 269, 1-[3-Fluoro-4-(2-oxo-1,2,3,4-tetrahydro-pyrido[2,3-d]pyrimidin-5-yloxy)-phenyl]-3-(3-fluoro-phenyl)-urea] | 
 | 10 to 100 nM | CCN1Cc2c(Oc3ccc(NC(=O)Nc4cc(C)oc4C(F)(F)F)cc3F)ccnc2NC1=O [Example 268, 1-[4-(3-Ethyl-2-oxo-1,2,3,4-tetrahydro-pyrido[2,3-d]pyrimidin-5-yloxy)-3-fluoro-phenyl]-3-(5-methyl-2-trifluoromethyl-furan-3-yl)-urea] | 
 | 100 to 1000 nM | CCN1Cc2c(Oc3ccc(NC(=O)Nc4ccc(Cl)nc4)cc3F)ccnc2NC1=O [Example 264, 1-(6-Chloro-pyridin-3-yl)-3-[4-(3-ethyl-2-oxo-1,2,3,4-tetrahydro-pyrido[2,3-d]pyrimidin-5-yloxy)-3-fluoro-phenyl]-urea] | 
